The text below walks through data of ChEMBL document CHEMBL2440034, “Towards new C6-rigid S-DABO HIV-1 reverse transcriptase inhibitors: synthesis, biological investigation and molecular modeling studies” (Bioorg Med Chem, 2013).

A value given as a limit tells only on which side of the number the result lay.

Data set [1] deals with Human immunodeficiency virus 1. The data set is described as follows: Potency index, ratio of DDI EC50 to compound EC50 for wild type HIV-1 3B infected in human MT4 cells. It counts as functional.
Data set [2] addresses Human immunodeficiency virus type 1 reverse transcriptase (Human immunodeficiency virus 1, UniProt Q72547). Kind of data set: Inhibition of recombinant wild type HIV-1 reverse transcriptase p66/p51 expressed in Escherichia coli JM109 using poly(rA)/oligo(dT)16 (1:1.2) as template/primer after 40 mins by spectrofluorometric analysis.
Data set [3] in a line: Cytotoxicity against human MT4 cells assessed as cell viability after 5 days by MTT assay. The format is cell-based.
The test system of data set [4] is Human immunodeficiency virus 2. Kind of data set: Antiviral activity against HIV-2 ROD infected in human MT4 cells assessed as protection against virus-induced cytopathogenicity after 5 days by MTT assay. The format is functional, organism-based. The note with it: Human immunodeficiency virus 2, ISOLATE ROD, MT4, 120 h.
Data set [5] concerns Human immunodeficiency virus 1. The data set is described as follows: Antiviral activity against wild type HIV-1 3B infected in human MT4 cells assessed as protection against virus-induced cytopathogenicity after 5 days by MTT assay. The format is functional, organism-based. The note with it: Human immunodeficiency virus 1, 3B, MT4, 120 h. A general note: Damage to the host cells serves as the signal in cytopathic effect assays.

Data set [6] is described as follows: Selectivity index, ratio of CC50 for human MT4 cells to EC50 for wild type HIV-1 3B infected in human MT4 cells. It counts as toxicity, cell-based. The note with it: read-out: Ratio CC50/EC50.
Data set [7] deals with Human immunodeficiency virus 1. Kind of data set: Antiviral activity against HIV-1 RESO56 harboring RT K103N/Y181C double mutant infected in human MT4 cells assessed as protection against virus-induced cytopathogenicity after 5 days by MTT assay. The format is functional, organism-based. Conditions: Human immunodeficiency virus 1, RESO56, MT4, 120 h.

In general, IC50 refers to the concentration at which inhibition is half-maximal. As a reminder, the CC50 is the concentration that lowers cell viability or growth by half. By EC50 is commonly meant the concentration at which the effect is half-maximal. For the molecule `CCc1c(C(=O)c2cccc(F)c2)nc(SCc2ccc(OC)cc2)[nH]c1=O`, in data set [1], the “Ratio EC50” value is on record as 50. In data set [2], the IC50 was 0.19 µM. For the same molecule, the CC50 at 120 h in data set [3] came out at 167 µM. Besides, the figures for the EC50 in data set [4], in data set [5] and in data set [7] were more than 167 µM, 0.38 µM and more than 167 µM, respectively. Besides, the selectivity ratio in data set [6] amounted to 436.

Regarding `Cc1ccnc2c1NC(=O)c1cccnc1N2C1CC1` [NEVIRAPINE], the CC50 at 120 h in data set [3] amounted to 15 µM. Also, the EC50 in data set [5] was determined as 0.084 µM; in data set [7] it was 1.97 µM.

For `CCc1c(C(=O)c2cccc(Br)c2)nc(SCc2ccc(OC)cc2)[nH]c1=O`, in data set [3], the CC50 at 120 h was 98.9 µM. Also, the results for the concentration for a half-maximal effect (EC50) in data set [4], in data set [5] and in data set [7] were more than 98.9 µM, 1.18 µM and more than 98.9 µM, respectively. For the same molecule, the selectivity ratio in data set [6] worked out at 84.

Take `O=c1[nH]cnc2c1ncn2[C@H]1CC[C@@H](CO)O1` [DIDANOSINE]: the CC50 at 120 h in data set [3] worked out at 212 µM. Further, the EC50 in data set [4] was found to be 15.3 µM; in data set [5] it was 17.2 µM. Moreover, in data set [6], the selectivity ratio was 12.

In the case of `COc1ccc(CSc2nc(C(=O)c3ccc(Br)cc3)c(C(C)C)c(=O)[nH]2)cc1`, the CC50 at 120 h in data set [3] stood at 42.5 µM. Moreover, the EC50 in data set [4] is more than 42.5 µM; in data set [5], not below 42.5 µM. The selectivity ratio in data set [6] was not above 1.

In the case of `Nc1ccn([C@H]2CC[C@@H](CO)O2)c(=O)n1` [ZALCITABINE], in data set [3], the CC50 at 120 h turned out to be 94.7 µM. Further, in data set [5], the EC50 came to 0.46 µM. In addition, the selectivity ratio in data set [6] amounted to 208.

Turning to `COc1ccc(CSc2nc(C(=O)c3cccc(Br)c3)c(C)c(=O)[nH]2)cc1`, in data set [3], the CC50 at 120 h was determined as 201 µM. Further, the values for the EC50 in data set [4], in data set [5] and in data set [7] were more than 201 µM, 16 µM and more than 201 µM, respectively. Further, in data set [6], the selectivity ratio was determined as 13.

As to `O=C1Nc2ccc(Cl)cc2[C@@](C#CC2CC2)(C(F)(F)F)O1` [EFAVIRENZ], in data set [3], the CC50 at 120 h was 6.34 µM. Further, the EC50 was found to be 0.0067 µM in data set [5] and 0.46 µM in data set [7].

For the molecule `COc1ccc(CSc2nc(C(=O)c3ccc(Br)cc3)c(C)c(=O)[nH]2)cc1`, in data set [3], the CC50 at 120 h is 252 µM. The figures for the EC50 in data set [4] and in data set [5] were more than 252 µM and not below 252 µM, respectively. Also, the selectivity ratio in data set [6] was not above 1.

In the case of `COc1ccc(CSc2nc(C(=O)c3ccc(Cl)cc3)c(C)c(=O)[nH]2)cc1`, the CC50 at 120 h in data set [3] was not below 151 µM. The EC50 in data set [4] was more than 151 µM; in data set [5] it was not below 151 µM.

As for `COc1ccc(CSc2nc(C(=O)c3ccc(C(C)(C)C)cc3)c(C)c(=O)[nH]2)cc1`, in data set [3], the CC50 at 120 h stood at 126 µM. Further, the EC50 was more than 126 µM in data set [4] and not below 126 µM in data set [5]. For the same molecule, in data set [6], the selectivity ratio is not above 1.

Turning to `CCc1c(C(=O)c2cc(F)cc(F)c2)nc(SCc2ccc(OC)cc2)[nH]c1=O`, the “Ratio EC50” value in data set [1] turned out to be 50. Moreover, in data set [2], the IC50 worked out at 0.16 µM. Moreover, in data set [3], the cytotoxic concentration (CC50) at 120 h turned out to be 139 µM. Further, the EC50 in data set [4] is more than 139 µM; in data set [5], 0.26 µM; in data set [7] it was more than 139 µM. Further, the selectivity ratio in data set [6] is 541.

In the case of `COc1ccc(CSc2nc(C(=O)c3cccc(Cl)c3)c(C)c(=O)[nH]2)cc1`, in data set [3], the CC50 at 120 h amounted to 152 µM. For the same molecule, the results for the EC50 in data set [4], in data set [5] and in data set [7] were more than 152 µM, 7.21 µM and more than 152 µM, respectively. Further, the selectivity ratio in data set [6] was 21.

`COc1ccc(CSc2nc(C(=O)c3cc(F)cc(F)c3)c(C)c(=O)[nH]2)cc1`: the CC50 at 120 h in data set [3] turned out to be 86.9 µM. The results for the EC50 in data set [4], in data set [5] and in data set [7] were more than 86.9 µM, 2.71 µM and more than 86.9 µM, respectively. The selectivity ratio in data set [6] is 32.

With `COc1ccc(CSc2nc(C(=O)c3cccc(F)c3)c(C)c(=O)[nH]2)cc1`, the CC50 at 120 h in data set [3] was determined as 225 µM. The values for the EC50 in data set [4], in data set [5] and in data set [7] were more than 225 µM, 6.35 µM and more than 225 µM, respectively. For the same molecule, in data set [6], the selectivity ratio came out at 35.

`COc1ccc(CSc2nc(C(=O)c3ccc(F)cc3)c(C)c(=O)[nH]2)cc1`: the CC50 at 120 h in data set [3] is not below 325 µM. The EC50 in data set [4] was more than 325 µM; in data set [5], not below 325 µM.

With `COc1ccc(CSc2nc(C(=O)c3cccc(F)c3)c(C(C)C)c(=O)[nH]2)cc1`, the “Ratio EC50” value in data set [1] worked out at 50. Also, the half-inhibitory concentration (IC50) in data set [2] was determined as 0.04 µM. Besides, in data set [3], the CC50 at 120 h amounted to 132 µM. The EC50 is more than 132 µM in data set [4], 0.29 µM in data set [5] and more than 132 µM in data set [7]. In addition, in data set [6], the selectivity ratio is 472.

Regarding `COc1ccc(CSc2nc(C(=O)c3ccc(F)c(F)c3)c(C)c(=O)[nH]2)cc1`, in data set [3], the CC50 at 120 h came out at 127 µM. Moreover, the EC50 is more than 127 µM in data set [4], not below 127 µM in data set [5] and more than 127 µM in data set [7]. Besides, in data set [6], the selectivity ratio was not above 1.

In the case of `Cc1cn([C@H]2C[C@H](N=[N+]=[N-])[C@@H](CO)O2)c(=O)[nH]c1=O` [ZIDOVUDINE], the values for the EC50 in data set [4], in data set [5] and in data set [7] were 0.0064 µM, 0.0059 µM and 0.0066 µM, respectively. For the same molecule, the selectivity ratio in data set [6] came to 15800.

Turning to `COc1ccc(CSc2nc(C(=O)c3ccc(F)cc3)c(C(C)C)c(=O)[nH]2)cc1`, the CC50 at 120 h in data set [3] came out at 135 µM. Further, the EC50 was more than 135 µM in data set [4], 6.52 µM in data set [5] and more than 135 µM in data set [7]. In addition, the selectivity ratio in data set [6] came out at 21.

As for `COc1ccc(CSc2nc(C(=O)c3ccccc3F)c(C(C)C)c(=O)[nH]2)cc1`, the “Ratio EC50” value in data set [1] is 50. For the same molecule, the IC50 in data set [2] was 0.072 µM. Besides, the CC50 at 120 h in data set [3] was 38.2 µM. The figures for the EC50 in data set [4], in data set [5] and in data set [7] were more than 38.2 µM, 0.27 µM and more than 38.2 µM, respectively. For the same molecule, the selectivity ratio in data set [6] was determined as 145.

For `CC(C)Nc1cccnc1N1CCN(C(=O)c2cc3cc(NS(C)(=O)=O)ccc3[nH]2)CC1` [DELAVIRDINE], the CC50 at 120 h in data set [3] worked out at 36.2 µM. The EC50 in data set [5] is 0.095 µM; in data set [7], more than 36.2 µM. Moreover, in data set [6], the selectivity ratio was 379.

For `COc1ccc(CSc2nc(C(=O)c3ccccc3F)c(C)c(=O)[nH]2)cc1`, in data set [2], the IC50 came out at 2.41 µM. The CC50 at 120 h in data set [3] came out at 175 µM. The EC50 is more than 175 µM in data set [4], 1.4 µM in data set [5] and more than 175 µM in data set [7]. Besides, the selectivity ratio in data set [6] worked out at 124.
